Where two headings read alike, the source gives them in different places.
Key:
Haemonchus contortus = experiment: Efficacy against Haemonchus contortus in jirds; format: in vivo, jirds (Meriones unguiculatus); conditions: 72 h, read-out: % Reduction in H.
Procedure: Anthelmintic effects of compounds of this invention were tested in vivo using Haemonchus contuortus in jirds (Meriones unguiculatus). The jirds were orally infected with approximately 750-3,000 third-stage larvae of Haemonchus contortus. Ten days after infection, the jirds in the treatment groups were treated once orally or subcutaneously at a dose of 2, 10, and/or 50 mg per kg bodyweight. Three days after treatment, the jirds were necropsied, and the larvae burden in the stomach is determined. The efficacy is defined as the reduction of the mean larvae count in the jirds of the treatment groups in comparison to the infected jirds in the untreated negative control group.

[1] = system: A. galli (intestinal roundworm of chicken) larval stage 3; O. dentatum (nodular worm of swine) larval stages 3 and 4; experiment: Activity against Ascaridia galli and Oesophagostomum dentatum larvae in vitro (minimum effective concentration); format: cell-based
[2] = jirds, oral, single treatment, larvae burden in stomach 3 days after treatment
[3] = sc, jirds, subcutaneous, single treatment, larvae burden in stomach 3 days after treatment
[4] = read-out: MEC (minimum effective concentration) against one or more of the tested nematodes, in vitro, one or more of A. galli L3, O. dentatum L3, L4, threshold 1 μM
[5] = read-out: MEC (minimum effective concentration) against one or more of the tested nematodes, in vitro, one or more of A. galli L3, O. dentatum L3, L4, threshold 7 μM
[6] = read-out: MEC (minimum effective concentration) against two or more of the tested nematodes, in vitro, two or more of A. galli L3, O. dentatum L3, L4, threshold 1 μM
[7] = in vitro, one or more of A. galli L3, O. dentatum L3, L4, threshold 7 μM, read-out: MEC (minimum effective concentration) against one or more of the tested nematodes
[8] = in vitro, one or more of A. galli L3, O. dentatum L3, L4, threshold 1 μM, read-out: MEC (minimum effective concentration) against one or more of the tested nematodes
[9] = in vitro, two or more of A. galli L3, O. dentatum L3, L4, threshold 1 μM, read-out: MEC (minimum effective concentration) against two or more of the tested nematodes

## CC(C)COc1cc(OC2CCN(C(=O)CCN3CCC(c4ccc(C(C)(C)C)cc4)CC3)CC2)ccc1[N+](=O)[O-] [Example 533]
Haemonchus contortus; [2]
  inhibition in vivo at 50 mg/kg: 83%
Haemonchus contortus; [3]
  inhibition in vivo at 50 mg/kg: 74%

## N#Cc1ccc(NC2CCN(C(=O)CCCN3CCN(c4ccc(C(F)(F)F)cn4)CC3)CC2)cc1C(F)(F)F [Example 157, 2-trifluoromethyl-4-(1-{4-[4-(5-trifluoromethyl-pyridin-2-yl)-piperazin-1-yl]-butyryl}-piperidin-4-ylamino)-benzonitrile]
Haemonchus contortus; jirds, 10 mg/kg, oral, single treatment, larvae burden in stomach 3 days after treatment
  inhibition in vivo at 10 mg/kg: 96%
Haemonchus contortus; sc, jirds, 10 mg/kg, subcutaneous, single treatment, larvae burden in stomach 3 days after treatment
  inhibition in vivo at 10 mg/kg: 93%

## CC(C)(C)c1ccc(N2CCN(CCCC(=O)N3CCC(Nc4ccc([N+](=O)[O-])c(C(F)(F)F)c4)CC3)CC2)cc1 [Example 90, 4-[4-(4-tert-butyl-phenyl)-piperazin-1-yl]-1-[4-(4-nitro-3-trifluoromethyl-phenylamino)-piperidin-1-yl]-butan-1-one]
Haemonchus contortus; po
  inhibition in vivo at 10 mg/kg: 46%
Haemonchus contortus; sc
  inhibition in vivo at 10 mg/kg: 42%

## O=C(NCC1CCN(c2ccc(C(F)(F)F)cc2)CC1)N1CCC(Nc2ccc([N+](=O)[O-])c(C(F)(F)F)c2)CC1 [Example 539]
Haemonchus contortus; [2]
  inhibition in vivo at 50 mg/kg: 82%
Haemonchus contortus; [3]
  inhibition in vivo at 50 mg/kg: 73%

## CC(CN1CCN(c2ccc(C(C)(C)C)cc2)CC1)C(=O)N1CCC(Nc2ccc([N+](=O)[O-])c(C(F)(F)F)c2)CC1 (stereo not shown) [Example 130, 3-[4-(4-tert-butyl-phenyl)-piperazin-1-yl]-2-methyl-1-[4-(4-nitro-3-trifluoromethyl-phenylamino)-piperidin-1-yl]-propan-1-one]
[1]; [4]
  minimal effective concentration: < 1 µM
[1]; [5]
  minimal effective concentration: < 7 µM
[1]; [6]
  minimal effective concentration: < 1 µM

## CCOc1cc(OC2CCN(C(=O)CCN3CCN(c4ccc(OCc5ccc(C(F)(F)F)cc5)cc4)CC3)CC2)ccc1[N+](=O)[O-] [Example 497]
[1]; [7]
  minimal effective concentration: < 7 µM

## O=C(CCCN1CCN(c2ccc(Cl)cc2)CC1)N1CC[C@@H](Nc2ccc([N+](=O)[O-])c(C(F)(F)F)c2)C1 [Example 792]
[1]; [8]
  minimal effective concentration: < 1 µM

## CC(C)(C)c1ccc(N2CCN(CCCC(=O)N3CCCN(c4ccc([N+](=O)[O-])c(C(F)(F)F)c4)CC3)CC2)cc1 [Example 1003]
[1]; [7]
  minimal effective concentration: < 7 µM

## CCOc1cc(OC2CCN(C(=O)CCN3CCN(c4ccc(C(C)(C)C)cc4)CC3)CC2)ccc1[N+](=O)[O-] [Example 502]
[1]; [8]
  minimal effective concentration: < 1 µM
[1]; [7]
  minimal effective concentration: < 7 µM

## CCOc1cc(OC2CCN(C(=O)CCN3CCN(c4ccc(Cl)cc4F)CC3)CC2)ccc1[N+](=O)[O-] [Example 498]
[1]; [7]
  minimal effective concentration: < 7 µM

## CC(C)(C)c1ccc(N2CCN(CCC(=O)N3CCCN(c4ccc([N+](=O)[O-])c(C(F)(F)F)c4)CC3)CC2)cc1 [Example 998]
[1]; [7]
  minimal effective concentration: < 7 µM

## O=C([C@@H]1CCC[C@H](C(=O)N2CCC(Nc3ccc([N+](=O)[O-])c(C(F)(F)F)c3)CC2)C1)N1CCN(c2ccccc2)CC1 [Example 227]
[1]; [9]
  minimal effective concentration: < 1 µM

## CC(C(=O)N1CCC(Nc2ccc([N+](=O)[O-])c(C(F)(F)F)c2)CC1)C(C)N1CCN(c2ccc(C(C)(C)C)cc2)CC1 (stereo not shown) [Example 588]
[1]; [6]
  minimal effective concentration: < 1 µM

## CC(C)(C)c1ccc(N2CCN(CCC(=O)N3CCC(Nc4ccc(C(F)(F)F)cn4)CC3)CC2)cc1 [Example 329]
[1]; [8]
  minimal effective concentration: < 1 µM

## CSc1ccc(NC2CCN(C(=O)CCCN3CCN(c4ccc(C(C)(C)C)cc4)CC3)CC2)cc1C(F)(F)F [Example 317]
[1]; [6]
  minimal effective concentration: < 1 µM

## CC(C)COc1cc(NC2CCN(C(=O)CCN3CCN(c4ccc(C(F)(F)F)cc4)CC3)CC2)ccc1[N+](=O)[O-] [Example 459]
[1]; [8]
  minimal effective concentration: < 1 µM
[1]; [7]
  minimal effective concentration: < 7 µM

## O=C(CCCN1CC2CN(c3ccc(C(F)(F)F)cc3)CC2C1)N1CC[C@H](Nc2ccc([N+](=O)[O-])c(C(F)(F)F)c2)C1 (stereo partly shown) [Example 743]
[1]; [7]
  minimal effective concentration: < 7 µM

## O=C(CCCN1CCN(c2ccc(F)cc2)CC1)N1CCC(Oc2ccc([N+](=O)[O-])c(C(F)(F)F)c2)CC1 [Example 261]
[1]; [8]
  minimal effective concentration: < 1 µM

## O=C(CCN1CCN(C2CCCCC2)CC1)N1CCC(Nc2ccc([N+](=O)[O-])c(C(F)(F)F)c2)CC1 [Example 241]
[1]; [9]
  minimal effective concentration: < 1 µM

## CC(C)COc1cc(NC2CCN(C(=O)CCN3CCN(c4ccc(F)cc4F)CC3)CC2)ccc1[N+](=O)[O-] [Example 469]
[1]; [7]
  minimal effective concentration: < 7 µM

## O=C(CCC1CCN(c2ccc(C(F)(F)F)cc2)CC1)N1CC[C@@H](Nc2ccc([N+](=O)[O-])c(C(F)(F)F)c2)C1 [Example 775]
[1]; [8]
  minimal effective concentration: < 1 µM

## O=C(CCN1CCN(c2ccc(Cl)cc2)CC1)N1CC[C@@H](Nc2ccc([N+](=O)[O-])c(C(F)(F)F)c2)C1 [Example 789]
[1]; [8]
  minimal effective concentration: < 1 µM
[1]; [9]
  minimal effective concentration: < 1 µM

## COc1ccc(N2CCN(CCC(=O)N3CCCN(c4ccc(SC(F)(F)F)cc4)CC3)CC2)cc1 [Example 1020]
[1]; [8]
  minimal effective concentration: < 1 µM

## O=C(CCCN1CCN(c2ccc(C(F)(F)F)cc2)CC1)N1CCC(Nc2cccc(C(F)(F)F)c2)CC1 [Example 81, 1-[4-(3-trifluoromethyl-phenylamino)-piperidin-1-yl]-4-[4-(4-trifluoromethyl-phenyl)-piperazin-1-yl]-butan-1-one]
[1]; [4]
  minimal effective concentration: < 1 µM
[1]; [5]
  minimal effective concentration: < 7 µM
[1]; [6]
  minimal effective concentration: < 1 µM

## O=C(CCCN1CCN(c2nnc(C(F)(F)F)s2)CC1)N1CCC(Nc2ccc([N+](=O)[O-])c(C(F)(F)F)c2)CC1 [Example 153, 1-[4-(4-nitro-3-trifluoromethyl-phenylamino)-piperidin-1-yl]-4-[4-(5-trifluoromethyl-1,3,4-thiadiazol-2-yl)-piperazin-1-yl]-butan-1-one]
[1]; [4]
  minimal effective concentration: < 1 µM
[1]; [5]
  minimal effective concentration: < 7 µM
[1]; [6]
  minimal effective concentration: < 1 µM

## O=C(CCN1CCN(c2ccc(C(F)(F)F)cc2)CC1)NC1CCN(c2ccc([N+](=O)[O-])c(C(F)(F)F)c2)CC1 [Example 596]
[1]; [8]
  minimal effective concentration: < 1 µM

## O=C(CCC1CCN(c2cccc(C(F)(F)F)c2)CC1)N1CCC(Nc2ccc([N+](=O)[O-])c(C(F)(F)F)c2)CC1 [Example 215]
[1]; [8]
  minimal effective concentration: < 1 µM
[1]; [9]
  minimal effective concentration: < 1 µM

## O=C(CCC1CCN(c2ccc(C(F)(F)F)cc2)CC1)N1CCC(Nc2ccc([N+](=O)[O-])c(C(F)(F)F)c2)CC1 [Example 141, 1-[4-(4-nitro-3-trifluoromethyl-phenylamino)-piperidin-1-yl]-3-[1-(4-trifluoromethyl-phenyl)-piperidin-4-yl]-propan-1-one]
[1]; [4]
  minimal effective concentration: < 1 µM
[1]; [5]
  minimal effective concentration: < 7 µM
[1]; [6]
  minimal effective concentration: < 1 µM

## CCOC(=O)c1ccc(NC2CCN(C(=O)CCCN3CCN(c4ccc(Cl)cc4)CC3)CC2)cc1 [Example 338]
[1]; [8]
  minimal effective concentration: < 1 µM

## CC(C)(C)c1ccc(N2CCCN(CCCC(=O)N3CC[C@@H](Nc4ccc([N+](=O)[O-])c(C(F)(F)F)c4)C3)CC2)cc1 [Example 778]
[1]; [8]
  minimal effective concentration: < 1 µM
[1]; [9]
  minimal effective concentration: < 1 µM

## O=C(CCCN1CCN(c2ccc(Cl)cc2)CC1)N1CCC(Oc2ccc([N+](=O)[O-])c(C(F)(F)F)c2)CC1 [Example 259]
[1]; [8]
  minimal effective concentration: < 1 µM

## O=C(CCN1CCN(c2ccc(F)cc2F)CC1)N1CCC(Nc2ccc([N+](=O)[O-])c(C(F)(F)F)c2)CC1 [Example 370]
[1]; [7]
  minimal effective concentration: < 7 µM

## O=C(CCN1CCN(c2ccc(C(F)(F)F)cc2)CC1)N1CCCN(c2ccc(SC(F)(F)F)cc2)CC1 [Example 1017]
[1]; [8]
  minimal effective concentration: < 1 µM

## COc1ccc(N2CCN(CCC(=O)N3CCC(Nc4ccc([N+](=O)[O-])c(C(F)(F)F)c4)CC3)CC2)cc1OC [Example 368]
[1]; [9]
  minimal effective concentration: < 1 µM

## N#Cc1ccc(NC2CCN(C(=O)CCN3CCN(c4ccc(C(F)(F)F)cc4)CC3)CC2)cc1 [Example 283]
[1]; [9]
  minimal effective concentration: < 1 µM

## O=[N+]([O-])c1ccc(NC2CCN(C(=S)CCN3CCN(C(=S)c4ccc(C(F)(F)F)cc4)CC3)CC2)cc1C(F)(F)F [Example 667]
[1]; [9]
  minimal effective concentration: < 1 µM

## CCCc1ccc(C2CCN(CCC(=O)N3CCC(Nc4ccc([N+](=O)[O-])c(OC)c4)CC3)CC2)cc1 [Example 379]
[1]; [7]
  minimal effective concentration: < 7 µM

## O=C(CCN1CCN(c2ccc(Cl)cn2)CC1)N1CC[C@@H](Nc2ccc([N+](=O)[O-])c(C(F)(F)F)c2)C1 [Example 795]
[1]; [8]
  minimal effective concentration: < 1 µM

## O=C(CCN1CCN(c2ccc(Cl)c(C(F)(F)F)c2)CC1)N1CCC(Oc2ccc([N+](=O)[O-])c(C(F)(F)F)c2)CC1 [Example 218]
[1]; [9]
  minimal effective concentration: < 1 µM

## CCCc1ccc(C2CCN(CCC(=O)N3CCC(Oc4ccc([N+](=O)[O-])c(OC)c4)CC3)CC2)cc1 [Example 489]
[1]; [8]
  minimal effective concentration: < 1 µM

## CCOc1cc(NC2CCN(C(=O)CCN3CCN(c4ccc(OC)cc4)CC3)CC2)ccc1[N+](=O)[O-] [Example 408]
[1]; [7]
  minimal effective concentration: < 7 µM

From patent publication US9096524B2, “Anthelmintic agents and their use” (Intervet International B.V., priority 2009, dated 2015)
